Consider seven molecules from US20220275534A1, “Peptide Library Production Method” (The University of Tokyo, priority 2018, published 2022).

Non-standard residues stand in square brackets, D forms with d. No end group written: not given here. *: point of attachment. prenyl = prenyl group added to Trp by KgpF, CC(C)=CC*

One test has as its target MetAP1 (Homo sapiens, UniProt P53582). Description: MetAP1 inhibition test of prenylated cyclic peptide (probe fluorescence). Format: biochemical. The settings on record: prenylated peptide at 1 μM, 5 μM or 10 μM; cofactor Mn2+ or Co2+ 100 μM; MetAP1 1 μM; 37° C., 120 min (FIG. 13). The protocol: A MetAP1 inhibition test was performed in vitro using the prenylated Met2, Met3a-L, and Met3-1 at concentrations of 1 μM, 5 μM or 10 μM in the presence of a MetAP1 cofactor Mn^2+ or Co^2+. In the test, enzymatic activity was measured by detecting probe fluorescence, that is, fluorescence emitted depending on the enzymatic activity of MetAP1.
(Conditions) • Scale: 20 μL • Cyclic peptide: 1, 5, 10 μM • MnCl2 or CoCl2: 100 μM • MetAP1 enzymatic activity probe: 1 μM • MetAP1: 1 μM • Tris (pH7.6): 25 mM • NaCl: 75 mM • Reaction: 37° C., 120 min.
After the reaction, the fluorescence intensity of the probe was measured using a plate reader.

The subject of test [1] is KgpF. Particulars: literature finding; cited from earlier work.
In test [2] the test system is KgpF. Briefly: Prenylation of artificial cyclic peptides with 160 μM KgpF at 0° C., 20 hours (Conditions 13/14 and 19/20; Examples 10, 14, 19; Tables 6 and 18). Format: biochemical, Microcystis aeruginosa. The settings on record: Table 18; Conditions 13 and 14 (160 μM KgpF, 0° C., 20 hours); NSGGVS added to C terminal. Details: key: 5: strong intensity; 4: medium intensity; 3: weak intensity; 2: very weak intensity; 1: no peak; N/A: not observed. The procedure: The artificial cyclic peptides Clone-M1 to M9 shown below were obtained by translation and synthesis in the artificial translation system (Conditions 13) developed by the present inventors. The peptides thus obtained were then reacted with 160 μM KgpF in the system shown in (Conditions 14) at 0° C. for 20 hours.
(§1) (Conditions 13) • FIT system: v8s/v11.0 • 19aa-Met: 0.5 mM • ClAc-D-Tyr-tRNA^fMetCUA: 90 μM • Reaction: 37° C., 60 min. • Scale: 2.5 μL scale
(§2) After the above reaction was performed, the reaction product was incubated at 25° C. for 12 minutes.
(§3) Then, a cyclization reaction was performed under the following conditions. • Translated mixture amount: 2.5 μL (mixture obtained by the above reaction) • EDTA: 18 mM • Reaction: 42° C., 60 min. • Scale: 2.75 μL scale
(§4) (Conditions 14) • Translated mixture amount: 2.75 μL (mixture obtained under (Conditions 13)) • KOH: 6.0 mM • Mg(OAc)2: 9.0 mM • Tris-HCl (pH 8.3) 15 mM • KgpF: 160 μM • DMAPP: 2 mM • Reaction: 0° C., 20 hours
The artificial cyclic peptides shown below were obtained by translation and synthesis in the artificial translation system (Conditions 19) developed by the present inventors. The peptides thus obtained were then reacted with 160 μM KgpF in the system shown in (Conditions 20) at 0° C. for 20 hours.
(Conditions 19) • FIT system: v8s/11.0 • 19aa-Met: 0.5 mM • ClAc-D-Tyr-tRNA^fMetCUA: 90 μM • Reaction: 37° C., 60 min. • Scale: 2.5 μL scale
(Conditions 20) • Translated mixture amount: 2.75 μL (mixture obtained under (Conditions 19)) • KOH: 6.0 mM • Mg(OAc)2: 9.0 mM • Tris-HCl (pH 8.3): 15 mM • KgpF: 160 μM • DMAPP: 2 mM • Reaction: 0° C., 20 hours
Then, the compound library was provided for a step of screening cyclic peptides having interaction with an enzyme MetAP1 (Human) as in the scheme shown in FIG. 8. It has been confirmed that with regards to some of the peptides shown in FIG. 10, peptides having these sequences are modified by prenylation as shown in Table 18 by bringing them into contact with KgpF under conditions shown in (Conditions 13) and (Conditions 14).
Target sequence in this assay (as listed by the source): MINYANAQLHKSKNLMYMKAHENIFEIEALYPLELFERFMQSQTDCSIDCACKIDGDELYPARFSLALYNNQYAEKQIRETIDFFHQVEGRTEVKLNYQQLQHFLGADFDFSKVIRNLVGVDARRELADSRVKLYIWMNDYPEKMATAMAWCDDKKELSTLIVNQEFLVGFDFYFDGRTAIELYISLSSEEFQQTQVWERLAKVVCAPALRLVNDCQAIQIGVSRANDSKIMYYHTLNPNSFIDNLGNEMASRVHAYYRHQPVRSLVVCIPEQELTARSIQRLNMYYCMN

For test [3], the system named is KgpF immobilized onto magnetic beads. Briefly: Modification of artificial cyclic peptides with KgpF immobilized onto magnetic beads, solid phase (Example 18; Table 17). Format: biochemical, Microcystis aeruginosa. Set-up: key: 5: strong intensity; 4: medium intensity; 3: weak intensity; 2: very weak intensity; 1: no peak; N/A: not observed. Particulars: KgpF Solid phase (magnetic beads) 72 μM, 4° C., 14 hours.
KgpF immobilized onto magnetic beads, sequence (as listed by the source): as above
Text: Dynabeads His-Tag Isolation and Pulldown (Invitrogen) was brought into contact with KgpF having a His-tag added N terminal and the KgpF was immobilized onto the magnetic beads. […] When it exceeded a predetermined amount, immobilization reached saturation.
(§5) The artificial cyclic peptides shown in Table were synthesized under (Conditions 25) and were brought into contact with KgpF in solid phase under (Conditions 26). In addition, the same peptides were reacted in liquid phase under conditions shown in (Conditions 13) and (Conditions 14) except that the prenylation reaction time was changed to 14 hours.
(Conditions 25) • FIT system: v8s/v11.1 • 19aa-Met: 0.5 mM • ClAc-D-Tyr-tRNA^fMetCUA: 90 μM • Reaction: 37° C., 60 min. • Scale: 2.5 μL scale
as §2, §3
(Conditions 26) • Translated mixture amount: 2.75 μL (mixture obtained under (Conditions 25)) • KOH: 6.0 mM • Mg(OAc)2: 9.0 mM • Tris-HCl (pH 8.3) 15 mM • KgpF immobilized onto magnetic beads: 72 μM • DMAPP: 2 mM • Reaction: 4° C., 14 hours, rotation mixing

Test [4] relates to KgpF. Briefly: Modification of the same peptides with KgpF in liquid phase, Conditions 13/14 with 14 hours (Example 18; Table 17). The test is classed as biochemical, Microcystis aeruginosa. Set-up: key: 5: strong intensity; 4: medium intensity; 3: weak intensity; 2: very weak intensity; 1: no peak; N/A: not observed. Particulars: KgpF Liquid phase 160 μM. The protocol:
as §1, §2, §3, §4, §5
Target sequence in this assay (as listed by the source): as above

As to “Met2: cyclic peptide SEQ ID NO: 361 from MetAP1 screening, Fmoc solid-phase synthesis, prenylated with KgpF (YKRRHCLPPAWG; also: cyclic, ring not given here, prenylated with KgpF)”, the “inhibition of the enzymatic activity of MetAP1” value (shortened to “inhibition”) in the test with MetAP1 is listed as “inhibit the enzymatic activity of MetAP1”.
Consider “Met3a-L: cyclic peptide SEQ ID NO: 362 from MetAP1 screening, Fmoc solid-phase synthesis, prenylated with KgpF (YKRKAWLC; also: cyclic, ring not given here, prenylated with KgpF)”, for which the “inhibition” value in the test with MetAP1 is recorded as “inhibit the enzymatic activity of MetAP1”.
`O=C(N[C@@H](Cc1c[nH]c2ccccc12)C(=O)O)OCC1c2ccccc2-c2ccccc21` [Fmoc-Trp-OH]: the “prenylation by KgpF” value in the test with KgpF [1] is listed as “low efficiency”.
Turning to “Cyclic [WLNGDNNWSTP]: main-chain cyclized peptide of 11 residues formed from precursor peptide KgpE; natural substrate giving Kawaguchipeptin A (SEQ ID NO: 386) (main-chain cyclized)”, the “prenylation by KgpF” value in the test with KgpF [1] is given as “prenylates two Trp residues”.
As for “Met3: prenylated cyclic peptide identified by screening with MetAP1 as a target (Ac-[dY]KRKAW(prenyl)ICQTAVYCNSGGVS; thioether (positions not given here); not fully specified (C-terminus))”, the “inhibition” value with MetAP1 is “inhibit the enzymatic activity of MetAP1”. Further, in the test on KgpF [2], the “Peak intensity, The number of prenyl groups added 0” value was 2 and the “Peak intensity, The number of prenyl groups added 1” value is 5.
Take “Clone-V3 (Ac-[dY]VWNVKIKPKTTKC; thioether (positions not given here); not fully specified (bridges))”: in test [3], the “Peak intensity, The number of prenyl groups added 0” value is on record as 1 and the “Peak intensity, The number of prenyl groups added 1” value is 5. In the test on KgpF [4], the “Peak intensity, The number of prenyl groups added 0” value is on record as 1 and the “Peak intensity, The number of prenyl groups added 1” value was found to be 5.
For the molecule “Clone-T2 (Ac-[dY]LVRERENTWKVTC; thioether (positions not given here); not fully specified (bridges))”, the “Peak intensity, The number of prenyl groups added 0” value (in test [3]; in the test with KgpF [4]) was 1 in each case. Also, the “Peak intensity, The number of prenyl groups added 1” value in test [3] was 5; in the test on KgpF [4], 4.
